The values that follow come from US20260146232A1, “METHODS FOR PROMOTING HOMING AND ENGRAFTMENT OF HEMATOPOIETIC STEM CELLS” (The Trustees of Indiana University, priority 2022, published 2026).

Assay [1] concerns human CB CD34+ cells. In words: Chemotaxis (transwell migration) assay toward SDF-1, CB CD34+ cells. As to conditions: for chemotaxis of human CB CD34+ cells toward SDF-1: 20 h. It is filed as cell-based. As to the method:
(§1) Chemotaxis assay. Chemotaxis assays were performed in Costar 24-well trans-well plates with 6.5 mm diameter inserts with 5.0 μm pores (Corning, NY, USA). Briefly, 650 μL of IMDM medium (37° C.) that contained 0.5% bovine serum albumin (Sigma-Aldrich) and SDF-1 (0, 50 ng/mL) was added to the bottom well. Cells were suspended at 1×10^5 cells/100 μL in IMDM medium and loaded to the upper chamber of the trans-well. Trans-well plates were placed in a 37° C. incubator with 95% humidity and 5% CO2 for 4 hours. Percent migration was measured using flow cytometry with number of cells in the bottom chamber divided by number of cells placed in the upper chamber. To calculate the percent migration of CB HSCs, phenotypic HSCs was determined by surface staining and flow cytometry analysis. Human CB HSC chemotaxis was calculated as number of HSCs in the bottom chamber divided by number of HSCs loaded in the upper chamber. For AMD3100 administration, cells were treated with 5 μg/mL AMD3100 (239820, Sigma-Aldrich) for 30 min right before the chemotaxis assay.

Assay [2] has as its system CXCR4. As to the kind of experiment: Surface CXCR4 protein level (MFI) by flow cytometry. It is filed as cell-based, human. As to conditions: for effect of FTO inhibitor on AGII-induced CXCR4 upregulation: AGII-treated cells plus FTO inhibitor; for CXCR4 expression (MFI of cell surface CXCR4 protein level): human CB CD34+ cells treated 20 h, screen 10 μM unless otherwise stated; for effect of inhibition of mir-145 (sh-mir-145) on compound-induced CXCR4 expression: human CB CD34+ cells treated with compound and sh-mir-145. The text has this: (§2) Human CD34^+ CB cell collection and culture. Umbilical CB units were supplied by Cleveland Cord Blood Bank and CordUse, Orlando, FL, USA. All studies were approved by the institutional review board of the IUSM. Mononuclear cells were isolated by density gradient centrifugation and CD34^+ cells were isolated by immunomagnetic selection kit (Miltenyi Biotec, 130-046-702). […] For molecular compound treatment, all reagents were ordered from Cayman Chemical (Ann Arbor, MI, USA). Briefly, molecular compounds were added in the initiation of human CB CD34^+ cells culture, the time and concentration of each molecular compound for cell treatment was shown in figure legends.
Flow cytometry. Fresh or cultured CB cells were sorted for different phenotypes by using the following antibodies. Antibodies were used to detect CD34 (BV786, BD Biosciences, 744741), CD34 (FITC, BD Biosciences, 340668), CD45RA (Taxe-red, BD Biosciences, 562298), CD90 (BV421, BD Biosciences, 562556), CD49f (cy5.5, BD Biosciences, 562495), CD38 (PE, BD Biosciences, 560981). CD3 (BV421, BD Biosciences, 562427), CD33 (PE, BD Biosciences, 555450), CD19 (PE, BD Biosciences, 555413), CXCR4 (APC, BD Biosciences, 555976) and CD45 (APC, BD Biosciences, 555485). Gating strategy of phenotypic HSCs were shown in supplementary FIG. 2B.
A general note: Flow cytometry measures light scatter and fluorescence of single cells or particles in a stream.

For assay [3], the system named is YTHDF2. As to the kind of experiment: Relative YTHDF2 expression level in human CB CD34+ cells. It is filed as cell-based. To be noted: human CB CD34+ cells treated 20 hours.
Text: as §2
RNA extraction and real-time PCR. After cells were harvested by FACS, RNA was extracted by a RNeasy Mini Kit following manufacturer's protocol (Qiagen, 74106). Total RNA was reverse-transcribed by use of Superscript III kit (ThermoFisher, 18080093). Quantitative real-time PCR reactions were performed by SYBR Green PCR Master Mix (Thermo Fisher, Florence, KY, USA) and an Agilent Mx3000P QPCR System. Expression of housekeeping gene GAPDH was used as an internal control. Data are shown as relative mRNA level normalized to levels in vehicle control, set to 1.

The test system of assay [4] is mir-145. In words: Relative mir-145 expression level in human CB CD34+ cells. It is filed as cell-based. As to conditions: human CB CD34+ cells treated 20 hours. The text has this: Human CD34^+ CB cell collection and culture. Umbilical CB units were supplied by Cleveland Cord Blood Bank and CordUse, Orlando, FL, USA. All studies were approved by the institutional review board of the IUSM. Mononuclear cells were isolated by density gradient centrifugation and CD34^+ cells were isolated by immunomagnetic selection kit (Miltenyi Biotec, 130-046-702). […] For molecular compound treatment, all reagents were ordered from Cayman Chemical (Ann Arbor, MI, USA). Briefly, molecular compounds were added in the initiation of human CB CD34^+ cells culture, the time and concentration of each molecular compound for cell treatment was shown in figure legends. RNA extraction and real-time PCR. After cells were harvested by FACS, RNA was extracted by a RNeasy Mini Kit following manufacturer's protocol (Qiagen, 74106). Total RNA was reverse-transcribed by use of Superscript III kit (ThermoFisher, 18080093). Quantitative real-time PCR reactions were performed by SYBR Green PCR Master Mix (Thermo Fisher, Florence, KY, USA) and an Agilent Mx3000P QPCR System. Expression of housekeeping gene GAPDH was used as an internal control. Data are shown as relative mRNA level normalized to levels in vehicle control, set to 1.

Assay [5] relates to phenotypic HSC (CD34+ CD38- CD45RA- CD90+ CD49f+). As to the kind of experiment: Chemotaxis (transwell migration) assay toward SDF-1, phenotypic HSCs. It is filed as cell-based, human. As to conditions: 20 h. As to the method:
as §1

For assay [6], the system named is CB CD34+ cells. As to the kind of experiment: Colony-forming unit (CFU) assay. It is filed as cell-based, human. As to conditions: 20 h.
Assay [7] has as its system human CB CD34+ cells. In words: Long-term engraftment / limiting dilution analysis (LDA) in NSG mice. To be noted: for engraftment in NSG mice vs vehicle control (human CD45+ cells in BM): 20 h, 4 months after transplantation; for human myeloid and B-cell chimerism in BM: 10,000 CB CD34+ cells; for engraftment in secondary recipients vs vehicle: secondary NSG mice at 4 months; for SRC frequency (Poisson distribution analysis): vehicle 1/4761. It is filed as in vivo. As to the method:
Limiting dilution analysis (LDA). Frequency of human SCID repopulating cells (SRCs) was determined by LDA as reported before. Increasing doses of GFP overexpressing CD34^+ cells (2500, 5000 or 10000 cells) were intravenously injected into sublethally irradiated NSG recipient mice (350 cGy; 137Cs source, single dose). Four months after transplantation, the percentage of GFP^+ human CD45^+ cell chimerism was analyzed by immunostaining and flow cytometry. For long-term engraftment assays that assess the self-renewal capacity of HSC, 3×10^6 BM cells from primary recipients of the 10000-cell group were intravenously transplanted into secondary sub-lethally irradiated NSG recipient mice.

Assay [8] deals with human CB CD34+ cells. In words: Homing assay of treated human CB CD34+ cells in NSG mice. It is filed as in vivo. As to conditions: Raloxifene 40 μM, 20 h; 500,000 cells; 24 h after transplantation. The method, then: Homing assay. Homing of human CB CD34^+ cells was evaluated in NSG mice. Molecular compounds treated or siRNA transfected human CB CD34+ cells (500,000 for each mouse) were intravenously injected into sub-lethally irradiated (350 cGy) NSG mice. After 24 h, these recipient mice were sacrificed, BM cells from each mouse were collected. Cells were stained with anti-human CD45 antibody, then resuspended in 1% formaldehyde buffer. Flow cytometry analysis was performed to determine the percentage of human CD45^+ cells. BM cells from non-transplanted NSG mice served as negative controls.

As to `c1cc(CN2CCCNCCNCCCNCC2)ccc1CN1CCCNCCNCCCNCC1` [AMD3100], in assay [1] (5 μg/mL AMD3100 for 30 min before the chemotaxis assay), the “blocking of Raloxifene- and Imatinib-enhanced chemotaxis toward SDF-1” value is “fully blocked”. Also, in assay [1] (AMD3100 5 μg/mL for 30 min before assay, AGII-treated cells), the “blocking of AGII-enhanced migration toward SDF-1” value is recorded as “blocked”. In addition, in assay [1] (AMD3100, Control or si-YTHDF2 transfected cells), the “blocking of chemotaxis of human CB CD34+ cells to SDF-1” value was “blocked”.

In the case of `Cc1noc(C)c1-c1cc(Cl)c(Nc2ccccc2C(=O)NO)c(Cl)c1` [FB23-2], the “effect of FTO inhibitor on AGII-induced CXCR4 upregulation” value in assay [2] was “repressed”.

Consider `CC#CCC(C)[C@H](O)/C=C/[C@@H]1[C@H]2C/C(=C/CCCC(=O)O)C[C@H]2C[C@H]1O` (some centres unmarked) [Iloprost], for which, in assay [2], the “CXCR4 expression (MFI of cell surface CXCR4 protein level)” value was “strongly upregulated” and the “effect of inhibition of mir-145 (sh-mir-145) on compound-induced CXCR4 expression” value is “did not affect”. Moreover, the YTHDF2 expression entry in assay [3] was “downregulated”. Also, the mir-145 expression result in assay [4] is recorded as “strongly upregulated”.

On to `Cc1ccc(NC(=O)c2ccc(CN3CCN(C)CC3)cc2)cc1Nc1nccc(-c2cccnc2)n1` [Imatinib], for which the “chemotaxis of human CB CD34+ cells toward SDF-1” value in assay [1] (Imatinib 10 μM) was “significantly enhanced”. The “migration to SDF-1 in phenotypic HSC population” value in assay [5] (Imatinib 10 μM) is listed as “Enhanced migration”. The “colony output vs control group” value in assay [6] (Imatinib 10 μM) is recorded as “no significant difference”. Further, the “engraftment in NSG mice vs vehicle control (human CD45+ cells in BM)” value in assay [7] (Imatinib 10 μM) is listed as “significantly elevated”. Moreover, in assay [7] (Imatinib-treated cells), the “human myeloid and B-cell chimerism in BM” value was “increased”; the “engraftment in secondary recipients vs vehicle” value is given as “Enhanced engraftment”; the “SRC frequency (Poisson distribution analysis)” value is 1/1406.

Regarding `Cc1ccc(Cl)c(Nc2ccccc2C(=O)O)c1Cl` [Meclofenamic Acid], in assay [2], the “effect of FTO inhibitor on AGII-induced CXCR4 upregulation” value was “repressed”.

`C[C@@H]1C[C@H]2[C@@H]3CCC4=CC(=O)C=C[C@]4(C)[C@@]3(Cl)[C@@H](O)C[C@]2(C)[C@@]1(O)C(=O)CCl` [Mometasone]: in assay [2], the “CXCR4 expression (MFI of cell surface CXCR4 protein level)” value is reported as “strongly upregulated” and the “effect of inhibition of mir-145 (sh-mir-145) on compound-induced CXCR4 expression” value is “did not affect”. Also, the YTHDF2 expression entry in assay [3] is reported as “downregulated”. In addition, the mir-145 expression entry in assay [4] is “strongly upregulated”.

Turning to `O=C(c1ccc(OCCN2CCCCC2)cc1)c1c(-c2ccc(O)cc2)sc2cc(O)ccc12` [Raloxifene], in assay [2], the “CXCR4 expression (MFI of cell surface CXCR4 protein level)” value was “strongly upregulated” and the “effect of inhibition of mir-145 (sh-mir-145) on compound-induced CXCR4 expression” value was “significantly blocked”. Also, in assay [3], the YTHDF2 expression result was “downregulated”. The mir-145 expression entry in assay [4] was “strongly upregulated”. Further, the “chemotaxis of human CB CD34+ cells toward SDF-1” value in assay [1] (Raloxifene 40 μM) is “significantly enhanced”. Besides, the “migration to SDF-1 in phenotypic HSC population” value in assay [5] (Raloxifene 40 μM) is “Enhanced migration”. The “homing efficiency (human CD45+ cells in BM)” value in assay [8] is recorded as “dramatically increased”. The “colony output vs control group” value in assay [6] (Raloxifene 40 μM) was “no significant difference”. In addition, the “engraftment in NSG mice vs vehicle control (human CD45+ cells in BM)” value in assay [7] (Raloxifene 40 μM) was “significantly elevated”. Moreover, in assay [7] (Raloxifene-treated cells), the “human myeloid and B-cell chimerism in BM” value is “increased”; the “engraftment in secondary recipients vs vehicle” value is recorded as “Enhanced engraftment”; the “SRC frequency (Poisson distribution analysis)” value was 1/1818.
